Measured values taken from patent publication US4560509A, “Antibiotic A39079 factor S-1” (Eli Lilly and Company, priority 1983, dated 1985).
In brackets after ≈: the same amount, converted by molar mass.

Experiments:
titration = assay type: physicochemical; conditions: 66% aqueous dimethylformamide
[1] = tested on: Pseudomonas aeruginosa Ps72; assay: standard agar-dilution MIC assay; assay type: cell-based
Source text: (§1) Table V summarizes the minimal inhibitory concentrations (MIC) at which factor S-1 inhibits certain organisms as determined by standard agar-dilution assays. In Table V, the activity of factor S-1 is compared with that of rifampin.

[2] = tested on: Klebsiella pneumoniae KAE; assay: standard agar-dilution MIC assay; assay type: cell-based; conditions: agar dilution; Klebsiella pneumoniae KAE; read-out: MIC
Source text: as §1

[3] = tested on: Streptococcus pneumoniae Park 1; assay: standard agar-dilution MIC assay; assay type: cell-based; conditions: PARK1; agar dilution; Streptococcus pneumoniae Park 1; read-out: MIC
Source text: as §1

Escherichia coli TEM = assay: standard agar-dilution MIC assay; assay type: cell-based
Source text: as §1

[4] = tested on: Streptococcus faecium ATCC 9790; assay: standard agar-dilution MIC assay; assay type: cell-based; conditions: Enterococcus faecium, ATCC9790; agar dilution; Streptococcus faecium ATCC 9790; read-out: MIC
Source text: as §1

Serratia marcescens SE3 = assay: standard agar-dilution MIC assay; assay type: cell-based; conditions: agar dilution; Serratia marcescens SE3; read-out: MIC
Source text: as §1

[5] = tested on: Staphylococcus aureus V41; assay: standard agar-dilution MIC assay; assay type: cell-based; conditions: agar dilution; Staphylococcus aureus V41; read-out: MIC
Source text: as §1

[6] = tested on: Pseudomonas aeruginosa X528; assay: standard agar-dilution MIC assay; assay type: cell-based; conditions: agar dilution; Pseudomonas aeruginosa X528; read-out: MIC
Source text: as §1

[7] = tested on: Staphylococcus epidermidis EPI1; assay: standard agar-dilution MIC assay; assay type: cell-based
Source text: as §1

Escherichia coli EC14 = assay: standard agar-dilution MIC assay; assay type: cell-based
Source text: as §1

Proteus morganii PR15 = assay: standard agar-dilution MIC assay; assay type: cell-based; conditions: Morganella morganii; agar dilution; Proteus morganii PR15; read-out: MIC
Source text: as §1

[8] = tested on: Haemophilus influenzae 76; assay: standard agar-dilution MIC assay; assay type: cell-based
Source text: as §1

[9] = tested on: Staphylococcus aureus X400; assay: standard agar-dilution MIC assay; assay type: cell-based; conditions: agar dilution; Staphylococcus aureus X400; read-out: MIC
Source text: as §1

[10] = tested on: Streptococcus sp. group D 9960; assay: standard agar-dilution MIC assay; assay type: cell-based; conditions: agar dilution; Streptococcus sp. group D 9960; read-out: MIC
Source text: as §1

Shigella sonnei N9 = assay: standard agar-dilution MIC assay; assay type: cell-based
Source text: as §1

[11] = tested on: Staphylococcus aureus S13E; assay: standard agar-dilution MIC assay; assay type: cell-based
Source text: as §1

[12] = tested on: Enterobacter aerogenes EB17; assay: standard agar-dilution MIC assay; assay type: cell-based; conditions: Klebsiella aerogenes; agar dilution; Enterobacter aerogenes EB17; read-out: MIC
Source text: as §1

[13] = tested on: Citrobacter freundii CF17; assay: standard agar-dilution MIC assay; assay type: cell-based; conditions: agar dilution; Citrobacter freundii CF17; read-out: MIC
Source text: as §1

[14] = tested on: Acinetobacter calcoaceticus AC12; assay: standard agar-dilution MIC assay; assay type: cell-based
Source text: as §1

[15] = tested on: Klebsiella pneumoniae X26; assay: standard agar-dilution MIC assay; assay type: cell-based; conditions: agar dilution; Klebsiella pneumoniae X26; read-out: MIC
Source text: as §1

Escherichia coli N10 = assay: standard agar-dilution MIC assay; assay type: cell-based
Source text: as §1

[16] = tested on: Staphylococcus epidermidis 222; assay: standard agar-dilution MIC assay; assay type: cell-based; conditions: agar dilution; Staphylococcus epidermidis 222; read-out: MIC
Source text: as §1

[17] = tested on: Haemophilus influenzae C.L.; assay: standard agar-dilution MIC assay; assay type: cell-based
Source text: as §1

Proteus inconstans PR33 = assay: standard agar-dilution MIC assay; assay type: cell-based; conditions: Providencia alcalifaciens; agar dilution; Proteus inconstans PR33; read-out: MIC
Source text: as §1

[18] = tested on: Enterobacter aerogenes C32; assay: standard agar-dilution MIC assay; assay type: cell-based; conditions: Klebsiella aerogenes; agar dilution; Enterobacter aerogenes C32; read-out: MIC
Source text: as §1

Proteus rettgeri C24 = assay: standard agar-dilution MIC assay; assay type: cell-based; conditions: Providencia rettgeri; agar dilution; Proteus rettgeri C24; read-out: MIC
Source text: as §1

[19] = tested on: Pseudomonas aeruginosa X239; assay: standard agar-dilution MIC assay; assay type: cell-based; conditions: agar dilution; Pseudomonas aeruginosa X239; read-out: MIC
Source text: as §1

[20] = tested on: Staphylococcus aureus NRRL B313; assay: standard agar-dilution MIC assay; assay type: cell-based; conditions: NRRLB313; agar dilution; Staphylococcus aureus NRRL B313; read-out: MIC
Source text: as §1

Enterobacter cloacae EB5 = assay: standard agar-dilution MIC assay; assay type: cell-based; conditions: agar dilution; Enterobacter cloacae EB5; read-out: MIC
Source text: as §1

Salmonella typhi 1335 = assay: standard agar-dilution MIC assay; assay type: cell-based; conditions: Salmonella enterica
Source text: as §1

Serratia marcescens X99 = assay: standard agar-dilution MIC assay; assay type: cell-based; conditions: agar dilution; Serratia marcescens X99; read-out: MIC
Source text: as §1

Salmonella typhi X514 = assay: standard agar-dilution MIC assay; assay type: cell-based; conditions: Salmonella enterica
Source text: as §1

[21] = tested on: Klebsiella pneumoniae X68; assay: standard agar-dilution MIC assay; assay type: cell-based; conditions: agar dilution; Klebsiella pneumoniae X68; read-out: MIC
Source text: as §1

[22] = tested on: Enterobacter cloacae 265A; assay: standard agar-dilution MIC assay; assay type: cell-based; conditions: agar dilution; Enterobacter cloacae 265A; read-out: MIC
Source text: as §1

[23] = tested on: Pseudomonas aeruginosa Ps18; assay: standard agar-dilution MIC assay; assay type: cell-based
Source text: as §1

[24] = stability in aqueous methanol solutions; assay type: physicochemical
Procedure: (7) Stability: Stability studies on factor S-1 in aqueous methanol solutions were run at pH levels of 2,5,7 and 9 and at temperatures of 4° C., 25° C., and 37° C.

CC(=O)OC1C(C)C(O)C=COC2(C)Oc3c(C)c(O)c4c(c3C2=O)C(=O)C(C)=C(NC(=O)C=CC=CC(C)C(O)C(C)C(O)C1C)C4=O (centres unmarked) [Factor S-1] gave a pKa (titration) of 8, an MIC [1] of 16 µg/mL (≈ 23.5 µM) and an MIC [2] of 16 µg/mL (≈ 23.5 µM). It also gave an MIC [3] of under 0.008 µg/mL, an MIC (Escherichia coli TEM) of over 128 µg/mL and an MIC [4] of 1 µg/mL (≈ 1.47 µM). It also gave an MIC (Serratia marcescens SE3) of 16 µg/mL (≈ 23.5 µM), an MIC [5] of 0.015 µg/mL (≈ 0.022 µM) and an MIC [6] of 16 µg/mL (≈ 23.5 µM). For the same compound, the MIC [7] was under 0.008 µg/mL, the MIC (Escherichia coli EC14) was 16 µg/mL (≈ 23.5 µM) and the MIC (Proteus morganii PR15) was 8 µg/mL (≈ 11.7 µM). The MIC [8] was 0.125 µg/mL (≈ 0.183 µM), the MIC [9] was 0.06 µg/mL (≈ 0.088 µM) and the MIC [10] was 1 µg/mL (≈ 1.47 µM). For the same compound, the MIC (Shigella sonnei N9) was 8 µg/mL (≈ 11.7 µM), the MIC [11] was 0.015 µg/mL (≈ 0.022 µM) and the MIC [12] was 32 µg/mL (≈ 46.9 µM). It also gave an MIC [13] of 16 µg/mL (≈ 23.5 µM), an MIC [14] of 2 µg/mL (≈ 2.93 µM) and an MIC [15] of 32 µg/mL (≈ 46.9 µM). It also gave an MIC (Escherichia coli N10) of 8 µg/mL (≈ 11.7 µM), an MIC [16] of under 0.008 µg/mL and an MIC [17] of 0.25 µg/mL (≈ 0.367 µM). It also gave an MIC (Proteus inconstans PR33) of 8 µg/mL (≈ 11.7 µM), an MIC [18] of 16 µg/mL (≈ 23.5 µM) and an MIC (Proteus rettgeri C24) of 2 µg/mL (≈ 2.93 µM). The MIC [19] was 16 µg/mL (≈ 23.5 µM), the MIC [20] was 0.015 µg/mL (≈ 0.022 µM) and the MIC (Enterobacter cloacae EB5) was 32 µg/mL (≈ 46.9 µM). It also gave an MIC (Salmonella typhi 1335) of 32 µg/mL (≈ 46.9 µM), an MIC (Serratia marcescens X99) of 32 µg/mL (≈ 46.9 µM) and an MIC (Salmonella typhi X514) of 32 µg/mL (≈ 46.9 µM). It also gave an MIC [21] of 16 µg/mL (≈ 23.5 µM), an MIC [22] of 32 µg/mL (≈ 46.9 µM) and an MIC [23] of over 128 µg/mL. The stability versus temperature ([24]; 4° C., 25° C. and 37° C.) was “most stable at 4° C., less stable at 25° C., and least stable at 37 °C” and the “stability versus pH” value ([24]; pH 2, 5, 7 and 9) was “more stable in slightly acidic, neutral and basic solutions than in strongly acidic solutions (pH=2)”.
